# Source: paper PMC12040169 (PLOS Biology, 2025)
# Assay: in vitro
# Conditions: human, hela cells
row,SMILES,"viability at 28.5 h, 10 µM"
1,O=C(CC(c1ccccc1)c1c(O)c2ccccc2oc1=O)c1ccc(-c2ccc(Br)cc2)cc1 (centres unmarked) [CBK260877],91.8%

# Same assay, conditions: human, hela cells, % viability
row,SMILES,"viability at 28.5 h, 10 µM"
1,COc1ccc(-n2ncc(-c3cccc(C(F)(F)F)c3)n2)cn1 [CBK112678],95.8%
2,NS(=O)(=O)c1ccc(NC(=O)/C(=C/c2ccc(Br)cc2)NC(=O)c2ccccc2)cc1 [CBK262109],105%
3,CN(C(=O)OC(C)(C)C)C1CN(C(c2ccccc2)c2ccccc2)C1 [CBK008111],89.8%
4,O=C(NCc1csc2c1CCCC2)N1CC(c2ccccn2)C1 [CBK307499],100%
5,CN(C)CCN1CCN(c2cccc(-c3ccncc3)n2)CC1 [CBK037029],95.9%
6,COc1cccc(Oc2cnc(-c3ccc(C(=O)N(C)C)cc3)c(N)n2)c1 [CBK145185],95.5%
7,CN(C)/N=C\c1cccc(O)c1 [CBK015814],95.2%
8,O=C(OCc1ccccc1)N1CCC(C2OCc3cc(-c4cccc5ncccc45)ccc3O2)CC1 (centres unmarked) [CBK144644],94.8%
9,O=C(Nc1cc2nn(-c3ccccc3)nc2cc1Cl)c1ccc(-c2cccc([N+](=O)[O-])c2)o1 [CBK266271],94%
10,CCOC(=O)Cn1nc([N+](=O)[O-])c(Cl)c1C [CBK269605],86.4%
11,c1ccc2c(c1)CSCC2Oc1cncc(N2CCNCC2)n1 (centres unmarked) [CBK172356T],94.9%
12,COc1cccc(Sc2cc(N3CCCC3)ncn2)c1 [CBK089533],110%
13,CC(C)(CO)CNc1cncc(-c2cccc(Cl)c2)n1 [CBK037862],102%
14,CC(C)(C)c1cc2cc(NC(=O)C3CC3)ccc2[nH]1 [CBK019994],115%
15,CCCCNC(=O)NS(N)(=O)=O [CBK022990],109%
16,Nc1ncc(CN(Cc2ccco2)CC(O)Cn2c3ccccc3c3ccccc32)cn1 (centres unmarked) [CBK286462],88.6%
17,O=C(O)c1ccc(NC(CC(=O)c2ccccc2)c2ccc(Br)cc2)cc1 (centres unmarked) [CBK266195C],109%
18,CCOC(=O)/C(C#N)=C(\O)c1ccc(N2C(=O)c3ccc(C(=O)O)cc3C2=O)cc1 [CBK262683],91.8%
19,Cc1nsc(NCc2ccccc2CN2CCCC2CO)c1C#N (centres unmarked) [CBK304124],88.8%
20,COc1ccc(C)cc1NC(=O)CSc1nc(C)cc(C(F)(F)F)n1 [CBK270205],96%

row,SMILES,"viability at 28.5 h, 10 µM"
1,COc1cccc(C(=O)Nc2ccc(-c3noc(-c4ccncc4)n3)cc2)c1 [CBK269892],93.4%
2,CC(C)(C)c1ccc(-c2cc3ncccc3nc2O)cc1 [CBK081302],97.1%
3,O=C(O)C1C2C=CC(C2)C1C(=O)NCc1ccco1 (centres unmarked) [CBK265453],92.7%
4,O=C1c2ccccc2C(=O)N1CCCSc1nnc(-c2ccncc2)n1-c1ccccc1 [CBK263419],102%
5,Cn1c(SCc2ccc([N+](=O)[O-])cc2)nnc1-c1ccc(NC(=O)c2ccccc2Cl)cc1 [CBK265001],111%
6,COC(=O)Cn1c(CN2CCN(c3cccc(Cl)c3)CC2)nc2c1c(=O)n(C)c(=O)n2C [CBK269598],86.7%
7,c1ccc2c(-c3cn4ccnc4c(Nc4ccc5cn[nH]c5c4)n3)cccc2c1 [CBK066346],88%
8,CC(C)(C)OC(=O)N1CCC(Oc2ccccc2C#N)C1 (centres unmarked) [CBK003039],84.9%
9,CC(CC(=O)N1CCC(c2cc3cccnc3[nH]2)CC1)n1cccn1 (centres unmarked) [CBK285036],100%
10,CCc1nc2ccc(C(=O)NCc3ccc4c(c3)OCO4)cn2c1N(CCN(C)C)CC1CC1 [CBK145472],97.1%
11,CC1CN(C(=O)/C=C/C(=O)O)c2ccccc2NC1=O (centres unmarked) [CBK286618],108%
12,CCCn1c(SCc2nc(N)nc(Nc3ccccc3CC)n2)n[nH]c1=O [CBK296966],86.6%
13,COc1cc(CNc2nc(O)cc(C(F)(F)F)n2)cc(OC)c1OC [CBK002390],90.3%
14,CCN1CCN(C(=O)CN(Cc2ccccc2)S(C)(=O)=O)CC1 [CBK266735],94.6%
15,COc1ccc(NC(=O)c2cnn3c2NC(C(=O)O)=CC3c2ccccc2)cc1 (centres unmarked) [CBK287240],101%
16,COc1ccc([C@@]23CC[C@@H](NC(=O)c4ccc(-c5csnn5)cc4)C[C@@H]2N(C)CC3)cc1OC [CBK074256T],100%
17,Cc1nn(-c2ccccc2)c(Cl)c1CN1C(=O)NC2(CCCCC2)C1=O [CBK306043],83.8%
18,CNC(=O)C1(Cc2ccc(-c3ccccc3)cc2)CCN(C(=O)Cc2ccccc2)CC1 [CBK285764],103%
19,O=C(/C=C/c1cccc([N+](=O)[O-])c1)Nc1ccc(O)cc1C(=O)O [CBK263615],87.3%
20,CCc1nc2cccnc2n1CCNC(=O)Cc1cccs1 [CBK283639],98.9%

row,SMILES,"viability at 28.5 h, 10 µM"
1,O=C(O)CCCCCN1C(=O)/C(=C/c2ccc(O)cc2)SC1=S [CBK262835],87.6%
2,Cc1c(NC(=S)NC(=O)COc2ccc(Cl)cc2)cccc1C(=O)O [CBK265070],103%
3,Cc1cc(F)c(S(N)(=O)=O)cc1NC(=O)c1ccc(CN2CCOCC2)o1 [CBK059376C],97.7%
4,O=C(O)C1(NCc2ccc(F)cc2)CCCCC1 [CBK287270],87.1%
5,Cc1noc(C)c1NC(=O)c1cscn1 [CBK200397],95.2%
6,CCNc1nc(-c2cc(Cl)cc(Cl)c2)cn2ccnc12 [CBK066483],89.6%
7,Cc1ccc(NS(=O)(=O)c2ccc(NC(=O)c3ccc(CN4CCOCC4)cc3)cc2)c(C)c1 [CBK264815],94.5%
8,O=C(O)CCN1CCN(S(=O)(=O)c2ccccc2)CC1 [CBK269402],106%
9,COc1ccc(OC)c(NS(=O)(=O)c2ccccc2)c1 [CBK099989],73%
10,CC(CNC(=O)CCc1cn(C)c2ccccc12)N1CCOCC1 (centres unmarked) [CBK281996],87.4%
11,CC(C)C(=O)Nc1nnc(-c2ccc(Cl)cc2)o1 [CBK287593],94%
12,COc1ccc(CNC(=O)Cn2nnc(-c3ccc(NC(=O)C4CCCCC4)cc3)n2)cc1 [CBK135876],101%
13,O=C(Cn1cccc(C(=O)Nc2ccc(F)cc2)c1=O)NC1(c2ccccc2)CCCC1 [CBK286057],96.3%
14,CCCCSc1nc(N)cc(N2CCCC(N3CCCC3=O)C2)n1 (centres unmarked) [CBK306995],95.5%
15,O=C(NCc1ccccn1)Nc1cccc(Cl)c1 [CBK058569],95.9%
16,N#Cc1ccc(C(=O)N2C[C@@H]3C[C@H](C2)c2ccc(-c4cccc(C#N)c4)c(=O)n2C3)cc1 [CBK289187],101%
17,O=C(Oc1ccc(N(C(=O)c2ccncc2)S(=O)(=O)c2cccc3cccnc23)cc1)c1ccncc1 [CBK267123],89.5%
18,O=C(CSc1nnc(-c2cccnc2)s1)Nc1ccc([N+](=O)[O-])cc1 [CBK268777],112%
19,COc1ccc2[nH]c3c(c2c1)CCNC31CCN(CCC2CCCCC2)C1 (centres unmarked) [CBK040111T],90.7%
20,CCCC(=O)N1CCCCC1c1nn(C)cc1-c1cc(C)no1 (centres unmarked) [CBK283407],106%

# Same assay, conditions: human, hela cells, % viability, bulk resorufin, single well
row,SMILES,"viability at 28.5 h, 10 µM"
1,FC(F)(F)c1ccc(COc2cccc(-c3ccc4c(c3)COC3(CCNCC3)O4)c2)cc1 [CBK105868],83.7%
